Compound: CCN1C(=O)C2=CC(=C(N=C2N(C1=O)C3CC3)N)C(=O)N + NC(=O)Nc1cc(-c2cccc(F)c2)sc1C(=O)N[C@H]1CCCNC1 [AZD7762] (partner 0.2 µM)
Assay: relative viability (nuclei count vs DMSO), 5 days (fraction); higher = more cells survive
Method in brief: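 Relative viability is defined as nuclei in treated wells over nuclei in vehicle wells. Duplicate plates were run and medians reported. Lung cancer cell lines in 1536-well plates were dosed by pin tool one day after seeding, with one drug or with a fixed anchor-drug dose plus five library-drug doses (not always all listed) in √10 steps, and nuclei were counted after 5 days.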

Cell Line	relative viability (first compound 0.253 µM)	relative viability (first compound 0.8 µM)	relative viability (first compound 2.53 µM)	relative viability (first compound 8 µM)
201T	0.609	0.677	0.64	0.615
A-427	0.73	0.791	0.731	0.789
ABC-1	0.479		1.15	0.954
BEN	0.789	0.568	0.864	0.689
CAL-12T	0.619	0.479	0.664	0.567
ChaGo-K-1	0.873	0.863	0.89	0.872
EKVX	0.824	0.701	0.749	0.698
EMC-BAC-2	1.18		1.04	1.14
EPLC-272H	0.229	0.206	0.278	0.193
H3255	0.884	0.922	0.919	0.832
HARA	0.661	0.304	0.296	0.315
HCC-15	1.18	1.45	1.18	1.31
HCC-44	1.03	0.993	0.977	0.991
HCC-78	0.56	0.592	0.626	0.735
HCC-366	0.395	0.312	0.41	0.231
HCC-827	0.165	0.193	0.25	0.207
HOP-62	0.727	0.566	0.617	0.899
LC-2-ad	0.866	0.771	0.853	0.834
LCLC-97TM1	0.242	0.155	0.267	0.175
LCLC-103H	0.76	0.83	0.768	0.838
LK-2	0.516	0.348	0.359	0.608
LOU-NH91	0.786	0.73	0.725	0.749
LU99A	0.356	0.377	0.304	0.348
LXF-289	1.12	1.17	1.08	1.07
NCI-H23	0.272	0.208	0.284	0.2
NCI-H322M	0.611	0.548	0.551	0.599
NCI-H358	0.535	0.536	0.552	0.564
NCI-H441	0.892	1.29	1.2	1.1
NCI-H460	0.609	0.572	0.57	0.586
NCI-H522	0.726	0.735	0.952	0.922

Source: the supplement of paper PMC10307832
